This is an account of results in ChEMBL document CHEMBL3596163, “Discovery of imidazo[1,5-a]pyridines and -pyrimidines as potent and selective RORc inverse agonists” (Bioorg Med Chem Lett, 2015).

In brackets after ≈: the same amount, converted by molar mass.

In data set [1] the target is T1, Peroxisome proliferator-activated receptor gamma (Homo sapiens, UniProt P37231).
T1 sequence (P37231 whole entry): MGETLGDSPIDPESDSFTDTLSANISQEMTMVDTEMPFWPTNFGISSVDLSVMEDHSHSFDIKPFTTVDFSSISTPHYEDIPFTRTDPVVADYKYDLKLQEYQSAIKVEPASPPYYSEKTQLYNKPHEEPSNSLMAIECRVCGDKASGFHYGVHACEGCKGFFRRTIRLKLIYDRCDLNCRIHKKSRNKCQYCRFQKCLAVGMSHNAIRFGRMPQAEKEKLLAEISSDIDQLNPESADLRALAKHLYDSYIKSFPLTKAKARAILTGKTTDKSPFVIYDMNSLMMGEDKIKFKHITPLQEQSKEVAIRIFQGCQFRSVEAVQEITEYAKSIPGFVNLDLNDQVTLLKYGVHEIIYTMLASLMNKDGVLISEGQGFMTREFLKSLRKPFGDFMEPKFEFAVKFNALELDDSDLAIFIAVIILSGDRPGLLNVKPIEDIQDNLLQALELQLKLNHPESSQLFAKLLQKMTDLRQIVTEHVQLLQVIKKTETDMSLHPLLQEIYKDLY
Nature of the data set: Displacement of fluormone PPARgamma green from GST-tagged human PPARgamma-LBD after 2 hrs by fluorescence polarization assay. For orientation: Fluorescence polarisation rises when a labelled molecule tumbles more slowly, as on binding a larger partner.

Data set [2] has as its target T2, Nuclear receptor ROR-gamma (Homo sapiens, UniProt P51449).
T2 sequence (P51449 whole entry): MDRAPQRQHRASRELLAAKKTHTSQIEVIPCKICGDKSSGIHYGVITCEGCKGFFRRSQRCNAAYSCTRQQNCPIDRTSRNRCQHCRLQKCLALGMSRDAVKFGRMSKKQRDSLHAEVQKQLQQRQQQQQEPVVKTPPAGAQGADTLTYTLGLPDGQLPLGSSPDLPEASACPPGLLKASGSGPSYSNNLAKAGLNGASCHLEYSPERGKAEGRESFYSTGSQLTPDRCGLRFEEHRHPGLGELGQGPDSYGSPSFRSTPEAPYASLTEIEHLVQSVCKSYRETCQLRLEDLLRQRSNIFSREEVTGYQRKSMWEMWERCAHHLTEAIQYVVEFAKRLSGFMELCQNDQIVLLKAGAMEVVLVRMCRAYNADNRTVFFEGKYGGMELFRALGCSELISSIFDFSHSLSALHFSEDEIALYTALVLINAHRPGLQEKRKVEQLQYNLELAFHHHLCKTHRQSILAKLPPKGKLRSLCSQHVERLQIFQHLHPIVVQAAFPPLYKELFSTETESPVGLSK
The data set is described as follows: Inverse agonist activity at GAL4-fused human RORc expressed in HEK293T cells assessed as suppression of basal transcriptional activity after 20 hrs by dual-glo luciferase reporter gene assay. Type of data set: functional, cell-based, HEK-293T. In general terms: In a reporter assay the amount or activity of a reporter protein is the signal.

Data set [3] can be described thus: Apparent permeability from apical to basolateral side in MDCK cells at 2 uM by LC-MS/MS analysis. Format: ADME, cell-based, Canis lupus familiaris. To be noted: dog.
Data set [4] in a line: Kinetic aqueous solubility of the compound in PBS buffer at 23 degC after 24 hrs by LC/CLND analysis. Format: physicochemical. To be noted: read-out: Kinetic_solubility.
For another data set, the system named is MDCK. The data set is described as follows: Efflux ratio of apparent permeability from apical to basolateral side over basolateral to apical side in MDCK cells at 2 uM by LC-MS/MS analysis. Format: ADME, cell-based, Canis lupus familiaris. As to conditions: dog.
A short description of data set [5]: Plasma protein binding in human at 5 uM after 4 hrs by equilibrium dialysis method. Type of data set: ADME, cell-free. As to conditions: read-out: PPB. (In general: Equilibrium dialysis compares concentrations on both sides of a semipermeable membrane.)
A short description of data set [6]: Apparent permeability from basolateral to apical side in MDCK cells at 2 uM by LC-MS/MS analysis. Type of data set: ADME, cell-based, Canis lupus familiaris. As to conditions: dog.
A short description of data set [7]: Plasma protein binding in rat at 5 uM after 4 hrs by equilibrium dialysis method. Type of data set: ADME, cell-free. To be noted: read-out: PPB.
Data set [8] is described as follows: Half life in Sprague-Dawley rat at 0.5 mg/kg, iv. Format: ADME, organism-based. To be noted: in vivo.
Data set [9] is described as follows: Plasma clearance in Sprague-Dawley rat at 0.5 mg/kg, iv. Type of data set: ADME, organism-based.
Data set [10] is described as follows: Oral bioavailability in Sprague-Dawley rat at […]. Type of data set: ADME, organism-based. To be noted: in vivo.
Data set [11] is described as follows: Volume of distribution in Sprague-Dawley rat at 0.5 mg/kg, iv. Format: ADME, organism-based. As to conditions: in vivo.
The nature of data set [12]: AUC in Sprague-Dawley rat at […], po. As to conditions: in vivo. Format: ADME, organism-based.
Data set [13] in a line: Cmax in Sprague-Dawley rat at […], po. Format: ADME, organism-based. Also on record: dose 1.5 mg/kg, route oral. As to conditions: in vivo.

`O=C(O)c1ccc(-c2nc(C(=O)c3c(Cl)cccc3C(F)(F)F)n3ccccc23)c(F)c1`: the half-inhibitory concentration (IC50) in data set [1] worked out at 320 nM. Besides, the EC50 in data set [2] came to 10 nM.

In data set [1], `O=C(O)c1ccc(-c2nc(C(=O)c3c(Cl)cccc3C3CC3)n3cccnc23)cc1O` showed a 50% inhibitory concentration (IC50) of 3400 nM. The Papp A→B at 2 µM in data set [3] stood at 8 ×10⁻⁶ cm/s. Further, the solubility kinetic at 24 h in [4] turned out to be 45 µM (≈ 19.5 µg/mL). Moreover, the EC50 in data set [2] came out at 13 nM. Besides, the Ratio with MDCK was less than 2. Besides, the fraction unbound at 4 h, 5 µM in data set [5] and in [7] was 0.01 each time. Further, the basolateral-to-apical permeability (Papp B→A) at 2 µM in [6] was 15 ×10⁻⁶ cm/s.

`O=C(O)c1ccc(-c2nc(C(=O)c3c(Cl)cccc3C(F)(F)F)n3c2CCCC3)c(F)c1` came in with an IC50 in data set [1] of 760 nM. Further, the EC50 in data set [2] was 36 nM.

Consider `O=C(O)c1ccc(-c2nc(C(=O)c3c(Cl)cccc3C(F)(F)F)n3ccccc23)cc1O`, for which the half-life in data set [8] was 12 min. In [1], the IC50 was found to be 650 nM. The clearance in data set [9] was determined as 130 mL/min/kg. Also, the apparent permeability from apical to basolateral (Papp A→B) at 2 µM in [3] is 12 ×10⁻⁶ cm/s. In addition, the bioavailability in [10] turned out to be 40%. The solubility kinetic at 24 h in data set [4] was found to be 86 µM (≈ 39.6 µg/mL). Also, the EC50 in data set [2] amounted to 4 nM. For the same compound, the Ratio with MDCK is listed as less than 2. Moreover, the fraction unbound at 4 h, 5 µM in data set [5] and in data set [7] was less than 0.01 in each case. For the same compound, the basolateral-to-apical permeability (Papp B→A) at 2 µM in data set [6] came out at 10 ×10⁻⁶ cm/s. In data set [11], the distribution volume (Vd) amounted to 1.2 L/kg. Besides, the exposure (AUC) in [12] amounted to 0.25 µM·h. For the same compound, in data set [13], the peak level (Cmax) was 70 nM.

`O=C(O)c1ccc(-c2nc(C(=O)c3c(Cl)cccc3C3CC3)n3c2CCCC3)c(F)c1` registered a 50% inhibitory concentration (IC50) in data set [1] of 1300 nM. Also, the half-maximal effective concentration (EC50) in data set [2] amounted to 26 nM.

As a reminder, the IC50 is the concentration needed to halve the response being measured. Broadly, the EC50 is the concentration needed to bring the measured effect to its halfway point. In general, Papp A→B refers to how fast a substance crosses the layer from the apical side. Broadly, the Papp B→A is the apparent permeability from the basolateral to the apical side of a cell layer. Broadly, the half-life is the time in which the quantity being followed falls by half. The low end stands for fast loss, the high end for slow loss. Usually clearance stands for the rate of elimination divided by the concentration. A high value points to a high capacity for elimination. What is called bioavailability is dose-corrected exposure relative to a reference, in per cent. High values mean good availability, low ones poor availability. As usually defined, the Vd is a proportionality between amount in the body and measured concentration, not a real space. Broadly, the AUC is concentration integrated over time. By Cmax is commonly meant the highest concentration seen after dosing.
